Source: article PMC10528180 (Foods, 2023)
pIC50, pKd: −log10 of the molar value.

Columns and labels:
α-glucosidase [1] = molecular target: T1, α-glucosidase (Saccharomyces cerevisiae, UniProt P53341); test: biochemical
T1 construct: purchased Sigma-Aldrich Co
Method: (§1) The other reagents used in this experiment are analytically pure reagents purchased from Sigma-Aldrich Co. (St. Louis, MI, USA) unless specified otherwise.
(§2) The in vitro α-glucosidase activity assay was determined using spectrophotometry, as previously reported, with only minor modifications. In phosphate buffer with a pH of 6.8, 0.5 U/mL of α-glucosidase and the appropriate quantity of p-nitrophenyl-D-glucopyranoside (pNGP) were produced. […] Gradient dilution with a phosphate-buffered solution was used to create sample solutions of various concentrations. First, different concentrations of compound (10 μL), an enzyme solution (40 μL), and potassium phosphate buffer (100 μL) were pre-incubated in 96-well plates at 37 °C for 10 min.
(§3) The enzymatic inhibitory activity of the tested compounds was calculated using the following formula: Inhibition %=[(Abs control−Abs sample)/Abs control]×100
(§4) The IC50 values of the tested compounds were calculated using nonlinear fitting (logit method).

α-amylase [2] = molecular target: T2, α-amylase (Sus scrofa, UniProt P00690); test: In vitro α-amylase activity assay (G3-CNP, absorbance 405 nm); type: biochemical, porcine
T2 construct: α-amylase (EC 232-565-6, powder, ≥5 units/mg solid) isolated from porcine pancreas; purchased Sigma-Aldrich Co; host or cells: porcine pancreas
T2 sequence (P00690 16-511): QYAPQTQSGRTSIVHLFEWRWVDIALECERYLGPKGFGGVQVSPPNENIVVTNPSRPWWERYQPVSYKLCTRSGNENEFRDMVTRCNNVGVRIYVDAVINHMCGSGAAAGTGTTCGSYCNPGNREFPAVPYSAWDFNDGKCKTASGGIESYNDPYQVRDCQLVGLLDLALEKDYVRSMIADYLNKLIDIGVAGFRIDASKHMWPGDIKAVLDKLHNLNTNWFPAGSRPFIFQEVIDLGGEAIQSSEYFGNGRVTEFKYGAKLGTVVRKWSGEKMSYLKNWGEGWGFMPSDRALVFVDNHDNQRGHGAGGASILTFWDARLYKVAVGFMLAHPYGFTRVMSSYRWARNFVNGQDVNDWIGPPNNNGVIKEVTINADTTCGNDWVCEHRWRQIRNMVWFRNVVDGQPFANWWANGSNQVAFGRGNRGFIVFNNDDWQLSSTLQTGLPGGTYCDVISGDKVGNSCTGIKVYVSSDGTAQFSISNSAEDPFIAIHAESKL
Method: as §1
as §2, with “modifications. A total” for “modifications. In phosphate buffer with a pH”, “of 5” for “of 6.8, 0.5”, “of α-amylase” for “of α-glucosidase”, “of 2-chloro-4-nitrophenyl α-D-maltotrioside (G3-CNP)” for “of p-nitrophenyl-D-glucopyranoside (pNGP)”
as §3, §4

α-glucosidase [3] = molecular target: T1, α-glucosidase; test: Inhibition kinetic analysis (Lineweaver-Burk) on α-glucosidase; type: biochemical
Method: (§5) The reactions of a series of compounds with substrates pNαPG and G3-CNP were tested using the Lineweaver–Burk expression in Equation (1) to calculate the maximum velocity (Vmax) and Michaelis–Menten constant (Km) values. (1) 1/v=Km/Vmax1/[S]+1/Vmax, where Vmax and Km are the maximum velocity of the enzyme and the Michaelis–Menten constant without inhibitor, respectively. [S] is the concentrations of the substrate and inhibitor.

α-amylase [4] = molecular target: T2, α-amylase; test: Inhibition kinetic analysis (Lineweaver-Burk) on α-amylase; type: biochemical, porcine; parameters: Vmax α-amylase: unit not given beside the values
Method: as §5

α-amylase [5] = molecular target: T2, α-amylase; test: Fluorescence quenching experiment with α-amylase (Stern-Volmer, double logarithmic, Van 't Hoff); type: binding, porcine; conditions: for pKd: Ka (binding constant) α-amylase
Description: Based on the previously described techniques, the fluorescence quenching experiment was somewhat modified. […] The 5.0 nm excitation and emission slit widths were predetermined.
The drop in fluorescence intensity brought on by the interaction of the quencher and the fluorescence group is what causes dynamic quenching. When the collision between the quencher and the fluorescence group intensifies as the temperature rises, the quenching constant rises. The quenching mechanism of the enzyme was further studied using the Stern–Volmer equation:(2) F0/F=1+Kqτ0Q=1+Ksv[Q], where Kq is the bimolecular quenching constant, F0 represents the fluorescence intensity of starch-digesting enzymes in the absence of inhibitors, F represents the fluorescence intensity of starch-digesting enzymes in the presence of inhibitors, and τ0 is the lifetime of the fluorophore in protein (about 10^−8 s).
By calculating the thermodynamic parameters of the quenching process, the binding affinity and the main force of the reaction process were evaluated. […] The thermodynamic parameters ΔH, ΔS, and ΔG represent enthalpy change, entropy change, and free energy change, respectively. […] The interaction forces in the reaction process can be roughly divided into four types: hydrophobic interaction, hydrogen bonding, electrostatic interaction, and van der Waals interaction.

T1 sequence (P53341 whole entry): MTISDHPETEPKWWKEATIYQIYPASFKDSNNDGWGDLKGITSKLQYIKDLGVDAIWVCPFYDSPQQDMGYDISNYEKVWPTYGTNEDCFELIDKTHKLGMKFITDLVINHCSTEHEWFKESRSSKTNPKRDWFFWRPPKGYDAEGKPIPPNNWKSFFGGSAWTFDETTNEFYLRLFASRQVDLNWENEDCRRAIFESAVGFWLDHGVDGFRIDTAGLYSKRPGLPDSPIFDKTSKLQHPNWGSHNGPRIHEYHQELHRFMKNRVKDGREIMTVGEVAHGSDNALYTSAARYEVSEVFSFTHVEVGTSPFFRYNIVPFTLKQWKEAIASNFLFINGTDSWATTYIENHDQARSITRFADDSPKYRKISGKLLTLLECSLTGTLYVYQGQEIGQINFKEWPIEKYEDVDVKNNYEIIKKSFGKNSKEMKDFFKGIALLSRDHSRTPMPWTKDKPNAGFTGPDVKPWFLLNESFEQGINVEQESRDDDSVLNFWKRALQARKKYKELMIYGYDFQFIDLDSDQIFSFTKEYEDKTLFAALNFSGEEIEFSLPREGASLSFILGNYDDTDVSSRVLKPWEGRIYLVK

Compound: O=c1c(O)c(-c2ccc(O)c(O)c2)oc2cc(O[C@@H]3O[C@H](CO)[C@@H](O)[C@H](O)[C@H]3O)cc(O)c12 [Quercimeritrin]
- pIC50 (α-glucosidase [1]): 4.10
- inhibition at 500 µM (α-glucosidase [1]; read-out: α-Glucosidase inhibition): 92%
- pIC50 (α-amylase [2]): < 3.60
- inhibition at 500 µM (α-amylase [2]; at 500 µM, read-out: α-Amylase inhibition): 57%
- inhibition mode on α-glucosidase (α-glucosidase [3]; Lineweaver-Burk diagram): competitive inhibition
- Vmax α-glucosidase (α-glucosidase [3]; [I] 15.6 μM): 0.2151
- Vmax α-glucosidase (α-glucosidase [3]; [I] 31.3 μM): 0.2028
- Vmax α-glucosidase (α-glucosidase [3]; [I] 62.5 μM): 0.2000
- Vmax α-glucosidase (α-glucosidase [3]; [I] 125 μM): 0.1916
- Vmax α-glucosidase (α-glucosidase [3]; [I] 250 μM): 0.1890
- Vmax α-glucosidase (α-glucosidase [3]; [I] 500 μM): 0.1761
- inhibition mode on α-amylase (α-amylase [4]; Lineweaver-Burk diagram): competitive inhibition
- Vmax α-amylase (α-amylase [4]; [I] 15.6 μM): 0.0521
- Vmax α-amylase (α-amylase [4]; [I] 31.3 μM): 0.0532
- Vmax α-amylase (α-amylase [4]; [I] 62.5 μM): 0.0522
- Vmax α-amylase (α-amylase [4]; [I] 125 μM): 0.0526
- Vmax α-amylase (α-amylase [4]; [I] 250 μM): 0.0503
- Vmax α-amylase (α-amylase [4]; [I] 500 μM): 0.0508
- fluorescence quenching mechanism, α-amylase (α-amylase [5]): static quenching
- pKd (α-amylase [5]; T 300.15 K): 4.82
- pKd (α-amylase [5]; T 305.15 K): 4.54
- pKd (α-amylase [5]; T 310.15 K): 4.41
- Ksv (quenching constant) α-amylase (α-amylase [5]; T 300.15 K): 0.13 ±0.03 10^5 /M
- n (number of binding sites) α-amylase (α-amylase [5]; T 300.15 K): 1.20
- Ksv (quenching constant) α-amylase (α-amylase [5]; T 305.15 K): 0.15 ±0.02 10^5 /M
- n (number of binding sites) α-amylase (α-amylase [5]; T 305.15 K): 1.10
- Ka (binding constant) α-amylase (α-amylase [5]; T 310.15 K): 0.26 ± 0.01 10^5 /M
- Ksv (quenching constant) α-amylase (α-amylase [5]; T 310.15 K): 0.18 ±0.04 10^5 /M
- n (number of binding sites) α-amylase (α-amylase [5]; T 310.15 K): 1.04
- ΔH α-amylase (α-amylase [5]; Van 't Hoff, 300.15-310.15 K): -14.10 ± 3.89 kJ/mol
- ΔS α-amylase (α-amylase [5]; Van 't Hoff, 300.15-310.15 K): -153.31 ±34.89 J/mol/K
- n (number of binding sites) α-amylase (α-amylase [5]; text summary over temperatures): ~1
